Reference: PMC10533412, “Phosphoantigens glue butyrophilin 3A1 and 2A1 to activate Vγ9Vδ2 T cells” (Nature, 2023)
Where two headings read alike, the source gives them in different places.

Legend:
Vγ9Vδ2 T cells = settings: cited from earlier work
BTN2A1 B30.2 domain = BTN2A1 B30.2 domain (Homo sapiens, UniProt Q7KYR7); settings: ITC
Procedure: (§1) ITC experiments were performed using the MicroCal PEAQ-ITC instrument (GE Healthcare) at 25 °C. We used an initial injection of 0.4 μl followed by 19 injections (2 µl each) at 150 s time intervals. ITC binding fits were calculated using MicroCal Analysis software. The samples were prepared using a buffer (20 mM HEPES pH 7.5, 150 mM NaCl).

BTN3A3(R351H) B30.2 = target: T1, BTN3A3(R351H) B30.2 (Homo sapiens, UniProt O00478); assay: ITC: HMBPP binding to BTN3A3(R351H) B30.2
T1 construct: the B30.2 domain of this active mutant (BTN3A3(R351H))
T1 sequence (O00478 322-518 R381H): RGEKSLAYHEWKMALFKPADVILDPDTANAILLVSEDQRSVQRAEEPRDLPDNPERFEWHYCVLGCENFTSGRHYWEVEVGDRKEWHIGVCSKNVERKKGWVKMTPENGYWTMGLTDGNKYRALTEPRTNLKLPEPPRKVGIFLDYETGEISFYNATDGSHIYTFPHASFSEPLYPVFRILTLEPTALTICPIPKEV
Procedure: (§2) ITC binding fits were calculated using MicroCal Analysis software.

[1] = target: T2, BTN2A1 B30.2–BTN3A1 B30.2 (Homo sapiens, UniProt O00481+Q7KYR7); assay: SEC–MALS of BTN2A1 B30.2–BTN3A1 B30.2 with or without HMBPP; settings: listed as HMBPP
T2 construct: The BTN3A1 B30.2 domain was expressed and purified as described previously; 6xHis; made in house; host or cells: Escherichia coli BL21 (DE3) for BTN2A1 B30.2
T2 sequence (O00481 322-513 limits assumed): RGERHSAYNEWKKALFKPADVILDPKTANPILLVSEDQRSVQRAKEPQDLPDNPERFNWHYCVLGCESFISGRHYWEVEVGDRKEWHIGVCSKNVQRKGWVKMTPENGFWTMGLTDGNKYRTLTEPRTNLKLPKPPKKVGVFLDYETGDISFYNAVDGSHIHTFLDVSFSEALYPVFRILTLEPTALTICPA
T2 sequence (Q7KYR7 316-527 limits assumed): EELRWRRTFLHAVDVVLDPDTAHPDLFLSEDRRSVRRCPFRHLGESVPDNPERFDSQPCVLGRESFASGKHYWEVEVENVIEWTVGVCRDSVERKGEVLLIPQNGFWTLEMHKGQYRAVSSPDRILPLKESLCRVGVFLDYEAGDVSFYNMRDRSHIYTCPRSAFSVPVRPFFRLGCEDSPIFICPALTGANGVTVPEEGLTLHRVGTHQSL
Procedure: SEC–MALS experiments were performed using the Wyatt Dawn Heleos II multiangle light-scattering detector (Wyatt Technology) coupled to an AKTA Purifier UPC10 FPLC protein purification system and the Superdex 200 size-exclusion column (GE Healthcare). Protein molecular masses of the individual peaks observed in the size-exclusion chromatograms were analysed by static light scattering in conjunction with their corresponding refractive indices, using an online refractometer connected downstream of the static light scattering detector (Wyatt Optilab rEX). The proteins were prepared at 5 mg ml^−1 in a buffer (20 mM HEPES pH 7.5, 150 mM NaCl). HMBPP was prepared in 0.5 mM. The experiments were performed with a running buffer (20 mM HEPES pH 7.5, 150 mM NaCl) at a flow rate of 0.5 ml min^−1. A standard value of the refractive index, dn/dc = 0.185 ml g^−1, was used for all proteins.

VpBTN1 BFI–VpBTN3 BFI = assay: ITC: VpBTN1 BFI binding to VpBTN3 BFI in the presence of pAg; design: species or system alpaca (Vicugna pacos)
Procedure: as §1
(§3) ITC experiments of HMBPP, DMAPP or IPP binding to the VpBTN3 BFI (or the preconditioned VpBTN3 BFI and VpBTN2 BFI complex) and VpBTN2 BFI (or VpBTN1 BFI) binding to VpBTN3 BFI in the presence of HMBPP, DMAPP or IPP were performed according to the same procedures as for the BTN3A1 B30.2 and BTN2A1 B30.2.

VpBTN3 BFI = VpBTN3 BFI (Vicugna pacos, UniProt A0A345DF50); assay: ITC: pAg binding to VpBTN3 BFI; design: species or system alpaca (Vicugna pacos); settings: ITC; read-out: KD, pAg binding to VpBTN3 intracellular domain (BFI)
Chain of VpBTN3 BFI (A0A345DF50 entry or part of it): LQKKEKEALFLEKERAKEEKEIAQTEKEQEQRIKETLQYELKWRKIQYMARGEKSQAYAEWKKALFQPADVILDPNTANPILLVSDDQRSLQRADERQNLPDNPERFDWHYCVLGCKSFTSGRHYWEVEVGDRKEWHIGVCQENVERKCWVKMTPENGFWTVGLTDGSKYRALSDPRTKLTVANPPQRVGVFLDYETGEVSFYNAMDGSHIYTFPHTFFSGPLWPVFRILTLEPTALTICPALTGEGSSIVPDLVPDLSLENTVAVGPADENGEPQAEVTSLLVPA
Procedure: as §1, §3

MIA PaCa-2 cells = assay: Cell killing assay: cytotoxicity of Vγ9Vδ2 T cells towards pAg- or zoledronate-treated MIA PaCa-2 cells (luciferase); format: cell-based, human; settings: for Bottom (best-fit value) / Top (best-fit value) / Span (best-fit value): Fig. 1b; for Bottom (best-fit value) / Top (best-fit value): log(agonist) vs. response (three parameters); for EC50: Homo sapiens
Procedure: MIA PaCa-2 cells were infected with lentivirus bearing luciferase transgene. Luciferase-positive cells were plated at 5.0 × 10^3 cells per well in 384-well plates 1 day before transfection. All plasmids were transfected into BTN2A^−/− MIA PaCa-2 (BTN2A1/BTN2A2 KO) cells using Lipofectamine 2000 reagent. […] Stable-lite luciferase (Vazyme) was added to each well and the luciferase signal was immediately measured by using the PerkinElmer EnVision microplate reader.
Percentage of lysis was calculated using the following equation: percentage of specific lysis = (maximum luciferase − experimental luciferase)/maximum luciferase × 100.

[2] = target: T3, BTN2A1 B30.2–BTN3A1 B30.2 (Homo sapiens, UniProt O00481+Q7KYR7, R449A/R469A); assay: ITC: BTN2A1 B30.2 (and mutants) binding to BTN3A1 B30.2 in the presence of pAg
T3 construct: The BTN3A1 B30.2 domain was expressed and purified as described previously; 6xHis; made in house; host or cells: Escherichia coli BL21 (DE3) for BTN2A1 B30.2
T3 sequence (O00481 322-513): as the sequence (O00481 322-513 limits assumed) above
T3 sequence (Q7KYR7 316-527 R449A/R469A): as the sequence (Q7KYR7 316-527 limits assumed) above, with R134A, R154A counted along it
Procedure: as §2
For the experiments testing the binding of BTN2A1/BTN2A2 B30.2 domain (including their mutants) to the BTN3A1 B30.2 domain with or without HMBPP, BTN3A1 B30.2 (100 µM) and HMBPP (300 µM) were incubated in the buffer at a 1:3 ratio and loaded into the sample cell, and the injection syringe was filled with the buffer containing 1 mM BTN2A1/BTN2A2 B30.2 (including their mutants).

[3] = target: T2, BTN2A1 B30.2–BTN3A1 B30.2; assay: Sedimentation velocity AUC of BTN2A1 B30.2 and BTN3A1 B30.2 with or without HMBPP; settings: SV-AUC
Procedure: Sedimentation experiments were performed at 20 °C and 45,000 rpm on the Beckman Coulter ProteomeLab XL-I analytical ultracentrifuge according to standard protocols. All of the samples were prepared in the buffer (20 mM HEPES pH 7.5, 150 mM NaCl) and inserted into 12 mm (or 3 mm) Epon centerpieces.

Chain of BTN2A1 B30.2 domain (Q7KYR7 316-527 limits assumed): as the sequence (Q7KYR7 316-527 limits assumed) above

## C/C(=C\COP(=O)(O)OP(=O)(O)O)CO [Compound 1, (E)-4-hydroxy-3-methylbut-2-en-1-yl diphosphate]
Vγ9Vδ2 T cells
  EC50 for Vγ9Vδ2 T cell activation: picomolar range
BTN2A1 B30.2 domain
  HMBPP binding to BTN2A1 B30.2 domain: does not bind
BTN3A3(R351H) B30.2
  Kd: 10.9 µM
[1]
  Molecular mass of BTN2A1 B30.2–BTN3A1 B30.2 oligomer formed on addition of HMBPP (trimer): 78.7 kDa
VpBTN1 BFI–VpBTN3 BFI
  VpBTN1 binding to VpBTN3 in the presence of pAg: does not bind
VpBTN3 BFI
  Kd: 1.37 µM
MIA PaCa-2 cells; 2A1 KO cells
  Bottom (best-fit value): 2.135
  Top (best-fit value): 50.59
MIA PaCa-2 cells; 2A1 KO cells, three-parameter fit
  Span (best-fit value): 48.45
MIA PaCa-2 cells; 2A1 WT cells
  Bottom (best-fit value): 19.47
  Top (best-fit value): 76.92
MIA PaCa-2 cells; 2A1 WT cells, three-parameter fit
  Span (best-fit value): 57.45
MIA PaCa-2 cells; MIA PaCa-2, BTN2A1 WT MIA PaCa-2 cells, read-out: EC50 for HMBPP-mediated MIA PaCa-2 cell killing
  EC50: 6.5e-09 M
MIA PaCa-2 cells; MIA PaCa-2, BTN2A1−/− (KO) MIA PaCa-2 cells, read-out: EC50 for HMBPP-mediated MIA PaCa-2 cell killing
  EC50: 3.6e-05 M
MIA PaCa-2 cells; MIA PaCa-2, Fig. 1b, 2A1 KO cells, log(Concentration)/M, three-parameter fit, read-out: LogEC50 (converted)
  EC50: 3.6e-05 M
MIA PaCa-2 cells; MIA PaCa-2, Fig. 1b, 2A1 KO cells, three-parameter fit, read-out: EC50
  EC50: 3.6e-05 M
MIA PaCa-2 cells; MIA PaCa-2, Fig. 1b, 2A1 WT cells, log(Concentration)/M, three-parameter fit, read-out: LogEC50 (converted)
  EC50: 6.5e-09 M
MIA PaCa-2 cells; MIA PaCa-2, Fig. 1b, 2A1 WT cells, three-parameter fit, read-out: EC50
  EC50: 6.5e-09 M
MIA PaCa-2 cells; MIA PaCa-2, Supplementary Table 4, read-out: EC50 (M) for MIA PaCa-2 cell lysis mediated by HMBPP analogs and Vγ9Vδ2 T cells
  EC50: 3.87e-09 M
[2]
  Binding of 2A1 B30.2 R449A/R469A to 3A1 B30.2 in the presence of HMBPP: does not bind
[3]
  Molecular mass of BTN2A1 B30.2–BTN3A1 B30.2 oligomer formed on addition of HMBPP (tetramer): 94.9 kDa
